In patent US4879311A, “Derivatives of benzoyloxyacetic acid, and preparation and formulations thereof for therapeutic use” (Inverni della Beffa S.p.A., priority 1987, dated 1989):
Values joined by “and” are separate entries in the source; they are usually repeats but may differ in a detail not shown here. Equal entries are not always repeated. “Also recorded” adds a separate entry of the source. Structures can show the parent of a compound that is named as a salt. Where two headings read alike, the source gives them in different places.

Columns and labels:
[1] = system: carrageenin oedema; test: carrageenin oedema test in the rat, oral administration; assay type: in vivo; conditions: for % change of increase of original volume, 1 h / % change of increase of original volume, 2 h / % change of increase of original volume, 3 h / % change of increase of original volume, 4 h / % change of increase of original volume, 5 h: vs controls
Procedure: (§1) The anti-inflammatory and analgesic activity of compound Ib was tested after oral administration in the carrageenin oedema test in the rat (C. A. Winter et al. Proc. Soc. Exp. Biol. Med., 111, 544, 1962), in the phenylquinone writhing test (I. C. Hendershot and J. J. Forsaith, Pharmacol. Exp. Ther., 125, 237, 1959) and in the hot plate test on the mouse (N. B. Eddy and D. J. Leimbach, J. Pharmacol. Exp. Ther., 107, 385, 1953). The activity of the compound was compared with equimolecular doses of sodium meclofenamate. A comparison was also made between the acute toxicity of the two substances by measuring the oral LD 50 on the rat.
The substances under test, dissolved in distilled water, were administered by a stomach probe 1 hour before subplantar injection of carrageenin (1% in sterile 0.9% NaCl aqueous solution). […]

[2] = system: writhing induced by phenylquinone; test: phenylquinone writhing test, oral administration; assay type: in vivo, mouse
Procedure: as §1
The substances under test were administered by a stomach probe 1 hour before intraperitoneal injection of phenylquinone (2 mg/kg). The abdominal contractions of the treated animals and the controls were counted during every 10 minutes for half an hour.

[3] = system: reaction time to heat (hot plate); assay type: in vivo, mouse; conditions: oral; for Percentages of mice protected at 30 minutes / Percentages of mice protected at 60 minutes: reaction time 15 seconds or more, 55° C.
Procedure: as §1
The substances under test were administered by a stomach probe to preselected mice. The controls and the treated animals were placed on the hot plate (55° C.) one at a time immediately after treatment. The reaction time to heat, was measured 30 and 60 minutes after treatment. Animals were considered protected when the reaction time was 15 seconds or more.

[4] = acute toxicity on the rat, oral LD50; assay type: in vivo; conditions: rat, in vivo, po
Procedure: as §1
(§2) The two LD 50 values were calculated by the probit method.

[5] = system: rat; test: acute toxicity on the rat, oral LD50; assay type: in vivo
Procedure: as §1, §2

[6] = system: arachidonic acid oedema; test: arachidonic acid oedema in the rat, oral administration; assay type: in vivo; conditions: for change of Increase of Original Volume (in parentheses), 60 min: vs controls
Procedure: (1) Arachidonic acid oedema in the rat (M. J. Di Martino, G. C. Campbell Jnr., C. E. Wolff and N. Hanna, Agents and Actions; 21, 303, 1987)
Compound Ib was administered by gastric probe one hour before subplantar injection of 0.1 ml of 0.5% arachidonic acid in carbonate buffer (pH 8-8.2).
The volume of the paws of the treated animals and of the control was measured with a plethysmometer immediately and 60 minutes after the irritating agent (peak time of oedema).

[7] = system: 6-day old air pouch irritated by carrageenan; test: irritation of 6-day old air pouch by carrageenan in the rat; assay type: in vivo
Procedure: (2) Irritation of 6-day old air pouch by carrageenan in the rat (A. D. Sedgwick, Y. M. Sin, A. R. Mackay, A. Al-Duaij and D. A. Willoughby; J. Pharm. Pharmacol.; 36, 171, 1984).
The formation of a dorsal pouch was induced in the rat by dorsal subcutaneous administration of 20 ml of air. 10 ml of air were then injected every day for three consecutive days in order to keep the cavity permeable. Six days after the first injection of air, the dorsal pouch in the animals was treated with 1 ml of 1% carrageenan in physiological solution.
Compound Ib was administered by gastric probe, 24 hours and 1 hour before administration of the irritating agent.
The animals, dividedinto groups of five, were killed 4 hours and 24 hours after the carrageenan. The volume of the exudate and the total number of leucocytes were measured.

[8] = pH of aqueous solution; assay type: physicochemical
[9] = rat, oral, dose corresponding to 10 mg/kg meclofenamic acid (Ib 12.7 mg/kg; sodium meclofenamate 11.0 mg/kg)
[10] = rat, oral, dose corresponding to 10 mg/kg meclofenamic acid
[11] = rat, oral, dose corresponding to 20 mg/kg meclofenamic acid (Ib 25,4 mg/kg; sodium meclofenamate 22,0 mg/kg), **P < 0.01 vs controls
[12] = rat, oral, dose corresponding to 20 mg/kg meclofenamic acid
[13] = oral, Ib 12.7 mg/kg, sodium meclofenamate 11.0 mg/kg
[14] = oral, Ib 25.4 mg/kg, sodium meclofenamate 22.0 mg/kg
[15] = oral, dose corresponding to 10 mg/kg meclofenamic acid (Ib 12.7 mg/kg; sodium meclofenamate 11.0 mg/kg)
[16] = oral, dose corresponding to 10 mg/kg meclofenamic acid (Ib 12.7 mg/kg; sodium meclofenamate 11.0 mg/kg), **P < 0.01 vs controls
[17] = oral, dose corresponding to 20 mg/kg meclofenamic acid (Ib 25.4 mg/kg; sodium meclofenamate 22.0 mg/kg), **P < 0.01 vs controls
[18] = Ib 12.7 mg/kg, sodium meclofenamate 11 mg/kg
[19] = Ib 25.4 mg/kg, sodium meclofenamate 22 mg/kg
[20] = os, Ib 31.75 mg/kg × 2 (**P < 0.01), sodium meclofenamate 27.5 mg/kg × 2 (*P < 0.05 vs controls), 24 h
[21] = os, Ib 31.75 mg/kg × 2, sodium meclofenamate 27.5 mg/kg × 2, 4 h, vs controls
[22] = os, Ib 31.75 mg/kg × 2, sodium meclofenamate 27.5 mg/kg × 2, 24 h, vs controls

With `Cc1ccc(Cl)c(Nc2ccccc2C(=O)OCC(=O)O)c1Cl` [Ib, sodium salt (Ib) of 2-[(2,6-dichloro-3-methylphenyl)-amino]benzoyloxyacetic acid] the “significance of Ib vs. sodium meclofenamate” value ([1]; Duncan test) was “Not significant”, the “Increase of original volume (m ± s.e.), 1 h” value [1, 9] was 0.44 ± 0.3 mL and the “Increase of original volume (m ± s.e.), 2 h” value [1, 9] was 0.81 ± 0.07 mL. For the same molecule, the “Increase of original volume (m ± s.e.), 3 h” value [1, 9] was 1.23 ± 0.06 mL, the “Increase of original volume (m ± s.e.), 4 h” value [1, 9] was 1.39 ± 0.06 mL and the “Increase of original volume (m ± s.e.), 5 h” value [1, 9] was 1.10 ± 0.08 mL. For the same molecule, the “% change of increase of original volume, 1 h” value [1, 10] was -6%, the “% change of increase of original volume, 2 h” value [1, 10] was -15% and the “% change of increase of original volume, 3 h” value [1, 10] was -20%. For the same molecule, the “% change of increase of original volume, 4 h” value [1, 10] was -8%, the “% change of increase of original volume, 5 h” value [1, 10] was -10% and the “Increase of original volume (m ± s.e.), 1 h” value ([1]; rat, oral, dose corresponding to 20 mg/kg meclofenamic acid (Ib 25,4 mg/kg; sodium meclofenamate 22,0 mg/kg)) was 0.35 ± 0.05 mL. The “Increase of original volume (m ± s.e.), 2 h” value ([1]; rat, oral, dose corresponding to 20 mg/kg meclofenamic acid (Ib 25,4 mg/kg; sodium meclofenamate 22,0 mg/kg), *P < 0.05) was 0.62 ± 0.07 mL, the “Increase of original volume (m ± s.e.), 3 h” value [1, 11] was 0.78 ± 0.07 mL and the “Increase of original volume (m ± s.e.), 4 h” value [1, 11] was 1.11 ± 0.08 mL. The “Increase of original volume (m ± s.e.), 5 h” value [1, 11] was 1.22 ± 0.08 mL, the “% change of increase of original volume, 1 h” value [1, 12] was -22% and the “% change of increase of original volume, 2 h” value [1, 12] was -35%. The “% change of increase of original volume, 3 h” value [1, 12] was -42%, the “% change of increase of original volume, 4 h” value [1, 12] was -31% and the “% change of increase of original volume, 5 h” value [1, 12] was -26%. The “anti-inflammatory activity compared with reference (in words)” value ([1]; rat, oral, vs sodium meclofenamate) was “had the anti-inflammatory and analgesic properties of the reference compound; also recorded: behaved in similar manner”, the minimal effective dose ([1]; rat, oral, read-out: dose at which antagonism of the oedema is statistically significant) was 68 µmol/kg and the “significance of Ib vs. sodium meclofenamate” value ([2]; Duncan test) was “Not significant”. The “% Protection, 0-10 minutes” value [2, 13] was 41%, the “% Protection, 10-20 minutes” value [2, 13] was 19% and the “% Protection, 20-30 minutes” value [2, 13] was 31%. For the same molecule, the “% Protection, total” value [2, 13] was 31%, the “% Protection, 0-10 minutes” value [2, 14] was 54% and the “% Protection, 10-20 minutes” value [2, 14] was 41%. For the same molecule, the “% Protection, 20-30 minutes” value [2, 14] was 50%, the “% Protection, total” value [2, 14] was 48% and the “Writhing (m ± s.e.) during 10-20 minutes” value [2, 15] was 16.6 ± 1.5. The “Writhing (m ± s.e.) during 20-30 minutes” value [2, 15] was 9.8 ± 1.0, the “Writhing (m ± s.e.) during 0-10 minutes” value [2, 16] was 14.8 ± 2.9 and the “Writhing (m ± s.e.), total minutes” value [2, 16] was 41.2 ± 4.1. For the same molecule, the “Writhing (m ± s.e.) during 10-20 minutes” value ([2]; oral, dose corresponding to 20 mg/kg meclofenamic acid (Ib 25.4 mg/kg; sodium meclofenamate 22.0 mg/kg)) was 12.1 ± 2.3, the “Writhing (m ± s.e.) during 0-10 minutes” value [2, 17] was 11.6 ± 2.5 and the “Writhing (m ± s.e.) during 20-30 minutes” value [2, 17] was 7.2 ± 1.4. For the same molecule, the “Writhing (m ± s.e.), total minutes” value [2, 17] was 30.9 ± 5.8, the “analgesic activity compared with reference (in words)” value ([2]; oral, vs sodium meclofenamate, both doses) was “had the anti-inflammatory and analgesic properties of the reference compound; also recorded: comparable with that of sodium meclofenamate” and the “activity in the hot plate test (in words)” value ([3]; mouse) was “some activity; also recorded: slight analgesic activity after 30 minutes”. For the same molecule, the “Percentages of mice protected at 30 minutes” value [3, 18] was 0%, the “Percentages of mice protected at 60 minutes” value [3, 18] was 0% and the “Percentages of mice protected at 30 minutes” value [3, 19] was 20%. The “Percentages of mice protected at 60 minutes” value [3, 19] was 0%, the LD50 at 480 h ([4]; male and female rats, 20 days of observation, probit method, read-out: DL50) was 271 mg/kg and the LD50 at 480 h ([4]; mg/kg meclofenamic acid, read-out: LD50 as corresponding meclofenamic acid) was 213 mg/kg. The PR ([5]; oral LD50, Ib and sodium meclofenamate, rat) was 1.935 (1.191-3.586), the Slope ([5]; oral LD50, probit method) was 2.553 ± 0.6302 and the “acute toxicity compared with sodium meclofenamate (in words)” value ([5]; rat, oral LD50) was “less toxic than sodium meclofenamate, to a statistically significant extent”. The “change of Increase of Original Volume (in parentheses), 60 min” value [6, 18] was -15, the “change of Increase of Original Volume (in parentheses), 60 min” value ([6]; Ib 38.1 mg/kg, sodium meclofenamate 33 mg/kg) was -40 and the “Increase of Original Volume (m ± s.e.), 60 min” value ([6]; dose corresponding to 10 mg/kg meclofenamic acid (Ib 12.7 mg/kg; sodium meclofenamate 11 mg/kg)) was 0.53 ± 0.04. The “Increase of Original Volume (m ± s.e.), 60 min” value ([6]; dose corresponding to 30 mg/kg meclofenamic acid (Ib 38.1 mg/kg, **P < 0.01; sodium meclofenamate 33 mg/kg, *P < 0.05 vs controls)) was 0.37 ± 0.05, the “activity relative to sodium meclofenamate” value ([6]; rat) was “about twice as active as sodium meclofenamate” and the “statistically significant dose as fraction of the LD50” value ([6]; rat, oedema reduced in statistically significant manner) was 1/7. For the same molecule, the “Leucocytes (m ± s.e.), 24 h” value [7, 20] was 16.08 ± 6.85 × 10^6, the “Volume of exudate (m ± s.e.), 24 h” value [7, 20] was 0.26 ± 0.06 mL and the “Leucocytes (m ± s.e.), 4 h” value ([7]; os, Ib 31.75 mg/kg × 2 (*P < 0.05 vs controls), sodium meclofenamate 27.5 mg/kg × 2, 4 h) was 1.08 ± 0.19 × 10^6. The “change of leucocytes (in parentheses), 4 h” value [7, 21] was -76, the “change of volume of exudate (in parentheses), 4 h” value [7, 21] was -25 and the “change of leucocytes (in parentheses), 24 h” value [7, 22] was -81. For the same molecule, the “change of volume of exudate (in parentheses), 24 h” value [7, 22] was -71, the “Volume of exudate (m ± s.e.), 4 h” value ([7]; os, dose corresponding to 25 mg/kg meclofenamic acid × 2 (Ib 31.75; sodium meclofenamate 27.5 mg/kg), 4 h) was 0.24 ± 0.02 mL and the “activity relative to the reference compound in inhibiting volume of exudate and total content of leucocytes” value ([7]; rat, oral, equimolar doses (in meclofenamic acid)) was “about twice as active as the reference compound”. For the same molecule, the “pH in 1% aqueous solution” value ([8]; 1% aqueous solution) was 6.9 and 7.1 and the “pH of aqueous solution (in words)” value ([8]; 1% aqueous solution (Ib)) was “practically neutral pH”.
